The values that follow are results of earlier work, collected in patent US20230149389A1, “METHODS OF REDUCING MORTALITY IN SUBJECTS SUFFERING FROM AN UNDERLYING DISEASE OR CONDITION BY ADMINISTRATION OF METHYLNALTREXONE” (Bausch Health Ireland Limited, priority 2020, published 2023).

The conditions of data set [1]: cited from earlier work.
Another data set relates to murine model of sepsis. Conditions: mouse, in vivo; cited from earlier work.
For data set [2], the system named is human dermal endothelial and pulmonary cells. To be noted: at clinically relevant levels; cited from earlier work.

With `C[C@H]1CN(C[C@H](Cc2ccccc2)C(=O)NCC(=O)O)CC[C@@]1(C)c1cccc(O)c1` [alvimopan], the “incidence rate for MI” value in data set [1] (placebo 0%) was 1.30%. Moreover, in data set [1] (placebo 1.12%), the “incidence rate for cardiovascular events” value is 2.60%.

For the compound `CN1CC[C@]23c4c5ccc(O)c4O[C@H]2[C@@H](O)C=C[C@H]3[C@H]1C5` [morphine], the “mortality in murine model of sepsis” value in the data set with murine model of sepsis is “increased mortality”. In addition, the “angiogenic activity relative to vascular endothelial growth factor” value in data set [2] was 70%.
